Measured values reported in patent US12485102B2, “Methods and compositions for treating cancer” (The Wistar Institute of Anatomy and Biology, priority 2017, dated 2025).

Assays:
[1] = tested on: CD8+ T cells from OT-1 mice; assay: Phenotype, gene expression, fatty acid uptake and effector functions of drug-treated OT-1 CD8+ T cells in vitro
Description: We initially tested stimulation of OT-1 T cells by the polyclonal activators anti-CD3 and anti-CD28 or by their cognate peptide [sequence] and IL-2.

[2] = tested on: CD8+ T cells from OT-1 mice; assay: Seahorse oxygen consumption rates (OXPHOS) of drug-treated OT-1 CD8+ T cells; type: cell-based; conditions: 10 or 100 μM, last 2 days of culture; FIG. 10
Description: They were then analyzed for oxygen consumption rates (OCR) by Seahorse (left graph). In addition, after culture all live cells, CD8+ cells and activated CD44+CD8+ cells were counted to assess potential toxicity.
Seahorse experiments were conducted to further characterize the effects of FF on CD8+ T cell metabolism.
Cells were treated with 10 or 100 μM of FFA or FFP for the last 2 days of culture. […] See, FIG. 9. Both drugs increased OXPHOS as shown by increased oxygen consumption rates.

[3] = tested on: CD8+ T cells from OT-1 mice; assay: Cell recovery and blast formation of in vitro stimulated, drug-treated OT-1 CD8+ T cells; type: cell-based
B16OVA tumor cells = assay: Adoptive transfer of drug-pre-treated OT-1 cells into B16OVA tumor-bearing mice: tumor progression; conditions: cells treated with 100 μM of FFA, last 2 days; n=5/group
Description: The cells were then treated for 2 days with 50 μM fenofibric acid or DMSO. Cells were injected i.v. into C57B1/6 recipient mice that had been injected 5 days earlier with B16OVA tumor cells. Tumor sizes were monitored. Tumor weights were measured at necropsy.
Mice were injected with 10^5 B16.F10 melanoma cells that were transduced to express the immunodominant epitope of ovalbumin [sequence]
Tumor growth in the mouse models was monitored for up to 24 days.
To assess how metabolic reprogramming affects tumor antigen-specific CD8+ T cells within a TME, mice were challenged with B16OVA tumor cells. […] Tumor progression was monitored and once tumors became large, splenocytes and tumor-infiltrating cells were isolated and characterized.
In another experiment, we treated cells with 100 μM of FFA (or as a control DMSO) for the last 2 days of culture. […] We analyzed tumor weights and splenocytes and tumor infiltrating lymphocytes (TILs) at necropsy for recovery, phenotypes, and functions of the donor OT-1 cells.

`CC(C)OC(=O)C(C)(C)Oc1ccc(C(=O)c2ccc(Cl)cc2)cc1` [FF, fenofibrate] was tested. Which “T cell proliferation in response to IL-2” value ([1]; FF-treated cells) did it give?
Its value is “no effect”.

What does the source list for `C[C@H](NC(=O)C(C)(C)Oc1ccc(C(=O)c2ccc(Cl)cc2)cc1)C(=O)N[C@@H](CCC(=O)O)C(=O)O` [FFP, (S)-2-((S)-2-(2-(4-(4-chlorobenzoyl)phenoxy)-2-methylpropanamido)propanamido)pentanedioic acid]?
oxygen consumption rates (OXPHOS) [2]: increased; blast formation ([3]; 100 μM, last 2 days of culture, FIG. 9): reduced blast formation; fatty acid uptake ([1]; 10 or 100 μM, last 2 days of culture): more pronounced

With `CC(C)(Oc1ccc(C(=O)c2ccc(Cl)cc2)cc1)C(=O)O` [FFA, fenofibric acid] as the compound, how does the “mice that developed progressing tumors” value (B16OVA tumor cells) read?
Its value is 2 mice.

What about the “mice with only small tumors that failed to grow” value (B16OVA tumor cells) of the same compound?
The value was 3 mice.

What about the “toxicity in the in vitro or ex vivo pretreatment of the T cells” value ([3]; compared with fenofibrate, FIG. 8) of the same compound?
The value was “reduced toxicity”.
